# Measurements published in patent publication US9932637B2, “Genetic polymorphisms associated with cardiovascular disorders and drug response, methods of detection and uses thereof” (CELERA CORPORATION, priority 2003, dated 2018).
# “And” between values parts separate entries of the source, which are not always exact repeats. Equal values may be shown once.
# System: patients with prior myocardial infarction (CARE study)
# Experiment: CARE aligned analysis (prospective and case/control design, white males): association of genotypes with pravastatin efficacy (Tables 13, 15)
# Type: in vivo, human
# Conditions: for Pravastatin Patients (%) / Pravastatin Patients n/total / 2 Rare Alleles (%), Pravastatin Patients / 2 Rare Alleles n/total, Pravastatin Patients: F&NF MI; for Pravastatin Patients (%) / Pravastatin Patients n/total: WM; for 2 rare alleles n/total (%), pravastatin patients / Pravastatin vs placebo odds ratio, 0 rare alleles / Pravastatin vs placebo odds ratio, 1 rare allele / Pravastatin vs placebo odds ratio, 2 rare alleles: CARE, F MI/SD/NF MI
# Protocol: The data presented in Table 8 based on an association of genotypes with pravastatin efficacy of the CARE samples were further analyzed and presented in Table 13. The further analysis was performed to align the data obtained from the analysis of the CARE samples, which was a prospective study, to the analysis of the WOSCOP samples, which was a case/control study. Table 13 also presents an analysis of the association of genotypes with pravastatin efficacy in the WOSCOPs samples. Relative to the analysis performed on the data presented in Table 8, there are two significant differences to determine if the SNP influenced pravastatin efficacy. Data obtained from the CARE samples were separated by study design into two groups, those in the prospective study design group and those in the case/control study design group. The original care study contained 16 protocol defined cardiovascular disease defined endpoints and 150 other phenotypes. […] The control groups used to compare the data were also divided into two groups, the “all possible” control group and the “cleaner” control group. […] Because the participants in the WOSCOPs trial were all white males, only data obtained from white males in the CARE study were analysed. Data from the “all possible” and “cleaner” controls were compared to data obtained from the cases in the prospective study design while only data from “cleaner” controls were compared to cases in the case/control study design. The data from the case/control cohorts were analysed using conditional logistic regression (as opposed to logistic regression used for the original anaylsis).
# The anaylsis was refined as described for both Tables 13 and 14.
# [1] = HLA-DPB1 hCV8851085, 0 Rare Alleles, CARE Prospective, Cleaner controls
# [2] = HLA-DPB1 hCV8851085, 1 Rare Allele, CARE Case/Control, All Possible controls
# [3] = HLA-DPB1 hCV8851085, 1 Rare Allele, CARE Case/Control, Cleaner controls
# [4] = HLA-DPB1 hCV8851085, 1 Rare Allele, CARE Prospective, All Possible controls
# [5] = HLA-DPB1 hCV8851085, 1 Rare Allele, CARE Prospective, Cleaner controls
# [6] = HLA-DPB1 hCV8851085, Case/Control
# [7] = HLA-DPB1 hCV8851085, Prospective
# [8] = HLA-DPB1 hCV25651174, Case/Control
# [9] = HLA-DPB1 hCV25651174, Prospective
# [10] = HLA-DQB1 hCV9494470, 0 Rare Alleles, CARE Case/Control, All Possible controls
# [11] = HLA-DQB1 hCV9494470, 0 Rare Alleles, CARE Case/Control, Cleaner controls
# [12] = HLA-DQB1 hCV9494470, 0 Rare Alleles, CARE Prospective, All Possible controls
# [13] = HLA-DQB1 hCV9494470, 0 Rare Alleles, CARE Prospective, Cleaner controls
# [14] = HLA-DQB1 hCV9494470, 1 Rare Allele, CARE Case/Control, All Possible controls
# [15] = HLA-DQB1 hCV9494470, 1 Rare Allele, CARE Case/Control, Cleaner controls
# [16] = HLA-DQB1 hCV9494470, 1 Rare Allele, CARE Prospective, All Possible controls
# [17] = HLA-DQB1 hCV9494470, 1 Rare Allele, CARE Prospective, Cleaner controls
# [18] = HLA-DQB1 hCV9494470, Case/Control
# [19] = HLA-DQB1 hCV9494470, Prospective
# [20] = IL1RN hCV8737990, 0 Rare Alleles, CARE Case/Control, Cleaner controls
# [21] = IL1RN hCV8737990, 0 Rare Alleles, CARE Prospective, All Possible controls
# [22] = IL1RN hCV8737990, 0 Rare Alleles, CARE Prospective, Cleaner controls
# [23] = IL1RN hCV8737990, 1 Rare Allele, CARE Case/Control, Cleaner controls
# [24] = IL1RN hCV8737990, 1 Rare Allele, CARE Prospective, All Possible controls
# [25] = IL1RN hCV8737990, 1 Rare Allele, CARE Prospective, Cleaner controls
smiles,measurement,setting,value
CC[C@H](C)C(=O)O[C@H]1C[C@H](O)C=C2C=C[C@H](C)[C@H](CC[C@@H](O)C[C@@H](O)CC(=O)O)[C@H]21 [pravastatin],Pravastatin Patients (%),[1],(14.1%)
same,Pravastatin Patients n/total,[1],74/523
same,Pravastatin Patients (%),[2],(10.3%)
same,Pravastatin Patients n/total,[2],44/426
same,Pravastatin Patients (%),[3],(15.1%)
same,Pravastatin Patients n/total,[3],44/292
same,Pravastatin Patients (%),[4],(10.2%)
same,Pravastatin Patients n/total,[4],44/433
same,Pravastatin Patients (%),[5],(14.9%)
same,Pravastatin Patients n/total,[5],44/295
same,"2 Rare Alleles (%), Pravastatin Patients","HLA-DPB1 hCV8851085, CARE Case/Control",(25.7%)
same,"2 rare alleles n/total (%), pravastatin patients",[6],(22.9%)
same,"Pravastatin vs placebo odds ratio, 0 rare alleles",[6],0.57
same,"Pravastatin vs placebo odds ratio, 1 rare allele",[6],0.87
same,"Pravastatin vs placebo odds ratio, 2 rare alleles",[6],4.69
same,"2 rare alleles n/total (%), pravastatin patients",[7],(22.9%)
same,"Pravastatin vs placebo odds ratio, 0 rare alleles",[7],0.58
same,"Pravastatin vs placebo odds ratio, 1 rare allele",[7],0.85
same,"Pravastatin vs placebo odds ratio, 2 rare alleles",[7],4.15
same,"2 Rare Alleles n/total, Pravastatin Patients","HLA-DPB1 hCV25651174, CARE Case/Control",17/109
same,"2 Rare Alleles n/total, Pravastatin Patients","HLA-DPB1 hCV25651174, CARE Prospective",17/110 and 17/77
same,"Pravastatin vs placebo odds ratio, 0 rare alleles",[8],0.59 and 0.51
same,"Pravastatin vs placebo odds ratio, 1 rare allele",[8],0.84 and 0.75
same,"Pravastatin vs placebo odds ratio, 2 rare alleles",[8],4.39 and 4.91
same,"Pravastatin vs placebo odds ratio, 0 rare alleles",[9],0.59 and 0.52
same,"Pravastatin vs placebo odds ratio, 1 rare allele",[9],0.84 and 0.72
same,"Pravastatin vs placebo odds ratio, 2 rare alleles",[9],4.29 and 4.60
same,Pravastatin Patients (%),[10],(11.1%)
same,Pravastatin Patients n/total,[10],92/826
same,Pravastatin Patients (%),[11],(16.1%)
same,Pravastatin Patients n/total,[11],92/572
same,Pravastatin Patients (%),[12],(11.0%)
same,Pravastatin Patients n/total,[12],92/840
same,Pravastatin Patients (%),[13],(15.8%)
same,Pravastatin Patients n/total,[13],92/583
same,Pravastatin Patients (%),[14],(7.9%)
same,Pravastatin Patients n/total,[14],28/353
same,Pravastatin Patients (%),[15],(11.5%)
same,Pravastatin Patients n/total,[15],28/244
same,Pravastatin Patients (%),[16],(7.8%)
same,Pravastatin Patients n/total,[16],28/361
same,Pravastatin Patients (%),[17],(11.3%)
same,Pravastatin Patients n/total,[17],28/247
same,"Pravastatin vs placebo odds ratio, 0 rare alleles",[18],0.99 and 0.90
same,"Pravastatin vs placebo odds ratio, 1 rare allele",[18],0.40 and 0.36
same,"Pravastatin vs placebo odds ratio, 2 rare alleles",[18],2.00 and 2.22
same,"Pravastatin vs placebo odds ratio, 0 rare alleles",[19],0.99 and 0.87
same,"Pravastatin vs placebo odds ratio, 1 rare allele",[19],0.42 and 0.38
same,"Pravastatin vs placebo odds ratio, 2 rare alleles",[19],2.06 and 2.16
same,Pravastatin Patients (%),[20],(14.9%)
same,Pravastatin Patients n/total,[20],66/444
same,Pravastatin Patients (%),[21],(10.3%)
same,Pravastatin Patients n/total,[21],66/642
same,Pravastatin Patients (%),[22],(14.6%)
same,Pravastatin Patients n/total,[22],66/453
same,Pravastatin Patients (%),[23],(13.0%)
same,Pravastatin Patients n/total,[23],43/332
same,Pravastatin Patients (%),[24],(8.7%)
same,Pravastatin Patients n/total,[24],43/496
same,Pravastatin Patients (%),[25],(12.8%)
same,Pravastatin Patients n/total,[25],43/336
same,"2 Rare Alleles (%), Pravastatin Patients","IL1RN hCV8737990, CARE Case/Control",(27.4%)
same,"2 rare alleles n/total (%), pravastatin patients","IL1RN hCV8737990, Case/Control",(21.1%)
same,"Pravastatin vs placebo odds ratio, 0 rare alleles","IL1RN hCV8737990, Case/Control",0.77
same,"Pravastatin vs placebo odds ratio, 1 rare allele","IL1RN hCV8737990, Case/Control",0.50
same,"Pravastatin vs placebo odds ratio, 2 rare alleles","IL1RN hCV8737990, Case/Control",1.97
same,"2 rare alleles n/total (%), pravastatin patients","IL1RN hCV8737990, Prospective",(20.7%)
same,"Pravastatin vs placebo odds ratio, 0 rare alleles","IL1RN hCV8737990, Prospective",0.80
same,"Pravastatin vs placebo odds ratio, 1 rare allele","IL1RN hCV8737990, Prospective",0.46
same,"Pravastatin vs placebo odds ratio, 2 rare alleles","IL1RN hCV8737990, Prospective",1.92
same,"Pravastatin vs placebo odds ratio, 0 rare alleles","IL4R hCV2769554, Case/Control",0.58 and 0.57
